Laboratory results as given in paper PMC9858449 (Journal of Enzyme Inhibition and Medicinal Chemistry, 2023).
Read-outs that look alike come from different tables or passages of the source.

How the values were obtained:
HCT-116 cells = experiment: MTT cytotoxicity assay, HCT-116; conditions: Homo sapiens
HepG-2 cells [1] = experiment: MTT cytotoxicity assay, HepG-2; format: cell-based; conditions: Homo sapiens
HeLa cells = experiment: MTT cytotoxicity assay, HeLa; conditions: Homo sapiens
MCF-7 cells = experiment: MTT cytotoxicity assay, MCF-7; conditions: Homo sapiens
[2] = test system: HepG-2, HCT-116, MCF-7 and HeLa cells; experiment: MTT cytotoxicity assay, all four cancer cell lines together; format: cell-based; conditions: for Cytotoxic activity category, all four tested cancer cell lines: category in words by IC50, HepG-2, HCT-116, MCF-7, HeLa
Topo II [3] = conditions: read-out: Topo II IC50; cited from earlier work
HepG-2 cells [4] = experiment: Flow cytometry cell cycle analysis; format: cell-based; conditions: HepG-2, PI staining
WI-38 cell line = experiment: In vitro cytotoxicity against normal WI-38 cell line; format: cell-based; conditions: Homo sapiens, WI-38, read-out: Normal cells IC50 WI-38
VEGFR-2 = VEGFR-2 (Homo sapiens, UniProt P35968); experiment: In vitro VEGFR-2 enzyme inhibition assay; format: biochemical
EGFR = EGFR (Homo sapiens, UniProt P00533); experiment: biochemical; format: biochemical
Topo II [5] = experiment: In vitro Topo II enzyme inhibition assay; format: biochemical; conditions: read-out: Topo II IC50; mean ± SD
HepG-2 cells [6] = experiment: Annexin V-FITC/PI apoptosis assay; format: cell-based; conditions: HepG-2, 24 h
[7] = biological target: EGFR, VEGFR-2, and Topo II; experiment: In vitro enzyme inhibition assays, three enzymes together; format: biochemical; conditions: read-out: IC50 range on EGFR, VEGFR-2, and Topo II; range over the three enzymes
Topo IIB = conditions: read-out: Topo IIB IC50; cited from earlier work
[8] = biological target: Topoisomerase II (Topo II); conditions: read-out: Topo II IC50; cited from earlier work
[9] = HCT-116, 48 h, read-out: In vitro Cytotoxicity IC50 HCT-116
[10] = HepG2, 48 h, read-out: In vitro Cytotoxicity IC50 HepG-2
[11] = 48 h, read-out: In vitro Cytotoxicity IC50 HeLa
[12] = MCF7, 48 h, read-out: In vitro Cytotoxicity IC50 MCF-7
[13] = read-out: Cytotoxic activity category, all four tested cancer cell lines
[14] = read-out: IC50 range over the four cancer cell lines
[15] = HCT-116, read-out: Cytotoxic activity category, HCT-116
[16] = HepG2, read-out: Cytotoxic activity category, HepG-2
[17] = read-out: Cytotoxic activity category, HeLa
[18] = MCF7, read-out: Cytotoxic activity category, MCF-7

Sequence of EGFR (P00533 25-1210): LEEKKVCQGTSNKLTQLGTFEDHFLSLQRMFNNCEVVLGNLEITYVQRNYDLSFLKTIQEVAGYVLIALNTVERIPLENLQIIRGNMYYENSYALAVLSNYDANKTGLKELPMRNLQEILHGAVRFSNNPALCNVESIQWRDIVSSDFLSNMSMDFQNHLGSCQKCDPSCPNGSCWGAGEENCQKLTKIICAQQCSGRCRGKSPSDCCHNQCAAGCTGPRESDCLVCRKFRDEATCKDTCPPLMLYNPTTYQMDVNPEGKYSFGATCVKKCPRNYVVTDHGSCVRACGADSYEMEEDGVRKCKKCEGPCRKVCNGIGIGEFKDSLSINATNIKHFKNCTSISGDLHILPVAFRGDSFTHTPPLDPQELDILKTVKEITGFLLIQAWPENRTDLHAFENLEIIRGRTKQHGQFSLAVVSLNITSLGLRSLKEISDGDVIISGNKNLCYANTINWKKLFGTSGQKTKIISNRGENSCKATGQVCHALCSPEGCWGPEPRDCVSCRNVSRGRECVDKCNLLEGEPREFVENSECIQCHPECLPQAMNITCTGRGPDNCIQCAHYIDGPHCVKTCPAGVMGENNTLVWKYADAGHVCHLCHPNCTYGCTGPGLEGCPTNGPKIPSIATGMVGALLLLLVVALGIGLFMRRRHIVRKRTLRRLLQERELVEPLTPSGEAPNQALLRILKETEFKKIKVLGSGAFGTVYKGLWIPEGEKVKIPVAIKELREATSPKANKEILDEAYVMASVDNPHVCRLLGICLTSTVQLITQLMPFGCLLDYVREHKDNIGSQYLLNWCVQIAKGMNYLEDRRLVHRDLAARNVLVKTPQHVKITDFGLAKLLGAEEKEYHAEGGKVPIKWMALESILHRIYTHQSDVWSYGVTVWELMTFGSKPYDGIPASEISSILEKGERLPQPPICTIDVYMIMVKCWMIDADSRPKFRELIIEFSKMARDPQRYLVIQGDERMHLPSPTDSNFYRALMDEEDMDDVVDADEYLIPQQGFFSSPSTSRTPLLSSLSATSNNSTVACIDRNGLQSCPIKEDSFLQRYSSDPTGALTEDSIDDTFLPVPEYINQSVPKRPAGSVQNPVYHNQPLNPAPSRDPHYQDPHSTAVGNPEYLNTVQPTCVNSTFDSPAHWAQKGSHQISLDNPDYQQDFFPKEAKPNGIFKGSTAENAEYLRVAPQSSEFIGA
Sequence of VEGFR-2 (P35968 20-1356): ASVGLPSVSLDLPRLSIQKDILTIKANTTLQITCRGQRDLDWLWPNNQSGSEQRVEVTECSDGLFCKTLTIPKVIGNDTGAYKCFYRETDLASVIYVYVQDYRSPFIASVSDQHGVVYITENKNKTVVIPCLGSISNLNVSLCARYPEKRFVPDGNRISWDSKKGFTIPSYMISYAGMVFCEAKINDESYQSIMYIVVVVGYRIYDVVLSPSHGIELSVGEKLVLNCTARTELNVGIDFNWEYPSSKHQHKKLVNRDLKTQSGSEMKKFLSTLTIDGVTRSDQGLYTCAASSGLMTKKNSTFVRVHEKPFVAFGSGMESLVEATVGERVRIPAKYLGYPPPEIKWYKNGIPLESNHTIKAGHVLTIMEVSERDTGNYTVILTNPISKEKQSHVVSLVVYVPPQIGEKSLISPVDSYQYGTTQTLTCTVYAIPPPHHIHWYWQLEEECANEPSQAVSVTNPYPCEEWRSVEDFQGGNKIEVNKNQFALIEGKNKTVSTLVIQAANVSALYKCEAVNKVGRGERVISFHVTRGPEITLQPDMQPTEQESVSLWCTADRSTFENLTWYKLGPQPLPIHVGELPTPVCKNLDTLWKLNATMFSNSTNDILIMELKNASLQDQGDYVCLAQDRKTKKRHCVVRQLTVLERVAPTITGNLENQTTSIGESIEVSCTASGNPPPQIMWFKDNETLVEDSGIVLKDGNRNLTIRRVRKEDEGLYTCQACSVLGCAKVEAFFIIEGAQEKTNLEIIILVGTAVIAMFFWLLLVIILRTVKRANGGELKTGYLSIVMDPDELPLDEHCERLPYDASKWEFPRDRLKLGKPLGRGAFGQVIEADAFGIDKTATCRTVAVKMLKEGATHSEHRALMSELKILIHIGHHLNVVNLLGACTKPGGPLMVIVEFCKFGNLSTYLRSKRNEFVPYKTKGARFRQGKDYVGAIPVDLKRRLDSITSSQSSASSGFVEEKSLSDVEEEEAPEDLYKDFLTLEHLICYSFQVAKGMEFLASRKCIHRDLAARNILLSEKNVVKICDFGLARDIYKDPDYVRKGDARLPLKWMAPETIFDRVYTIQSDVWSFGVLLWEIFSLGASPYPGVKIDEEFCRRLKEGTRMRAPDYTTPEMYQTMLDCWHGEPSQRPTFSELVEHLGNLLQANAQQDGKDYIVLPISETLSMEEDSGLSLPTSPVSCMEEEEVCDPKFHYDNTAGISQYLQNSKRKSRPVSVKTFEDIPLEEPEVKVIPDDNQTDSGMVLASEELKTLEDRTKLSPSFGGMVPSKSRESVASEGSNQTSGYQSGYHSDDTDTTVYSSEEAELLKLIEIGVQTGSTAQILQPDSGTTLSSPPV

Row | Molecule | IC50 (HCT-116 cells; [9]) [µM] | IC50 (HepG-2 cells [1]; [10]) [µM] | IC50 (HeLa cells; [11]) [µM] | IC50 (MCF-7 cells; [12]) [µM] | other results
1 | COc1ccc(NC(=S)NNC(=O)c2nnn(Cc3nc4ccccc4[nH]3)c2C)cc1 [Compound 5g, 2-{1-[(1h-Benzo[d]imidazol-2-yl)methyl]-5-methyl-1H-1,2,3-triazole-4-carbonyl}-N-(4-methoxyphenyl)hydrazinecarbothioamide] | 18.7 ± 1.5 | 13.6 ± 1 | 8.7 ± 0.6 | 9.39 ± 0.8 | 
2 | Cc1c(C(=O)N/N=C/c2ccc(Cl)cc2)nnn1Cc1nc2ccccc2[nH]1 [Compound 6a, (E)-1-[(1H-Benzo[d]imidazol-2-yl)methyl]-N′-(4-chlorobenzylidene)-5-methyl-1H-1,2,3-triazole-4-carbohydrazide] | 28.2 ± 2.5 | 47 ± 2.8 | 35.3 ± 2.5 | 39.5 ± 2.6 | IC50 [2, 13]: 21 to 50 µM; IC50 [2, 14]: 28.2 to 47 µM
3 | Cc1ccc(NC(=S)NNC(=O)c2nnn(Cc3nc4ccccc4[nH]3)c2C)cc1 [Compound 5f, 2-{1-[(1h-Benzo[d]imidazol-2-yl)methyl]-5-methyl-1H-1,2,3-triazole-4-carbonyl}-N-(p-tolyl)hydrazinecarbothioamide] | 68.5 ± 3.7 | 72.7 ± 3.8 | 58.1 ± 3.1 | 64.1 ± 3.3 | 
4 | Cc1c(C(=O)N/N=C/c2ccc(N(C)C)cc2)nnn1Cc1nc2ccccc2[nH]1 [Compound 6f, (E)-1-[(1H-Benzo[d]imidazol-2-yl)methyl]-N′-[4-(dimethylamino)benzylidene]-5-methyl-1H-1,2,3-triazole-4-carbohydrazide] | 11.7 ± 0.9 | 18.3 ± 1.5 | 22.8 ± 1.9 | 14.7 ± 1.1 | IC50 (HCT-116 cells; [15]): 11 to 20 µM; IC50 (HepG-2 cells [1]; [16]): 11 to 20 µM; IC50 (HeLa cells; [17]): 21 to 50 µM; IC50 (MCF-7 cells; [18]): 11 to 20 µM
5 | Cc1c(C(=O)N/N=C/c2cccc([N+](=O)[O-])c2)nnn1Cc1nc2ccccc2[nH]1 [Compound 6d, (E)-1-[(1H-Benzo[d]imidazol-2-yl)methyl]-5-methyl-N′-(3-nitrobenzylidene)-1H-1,2,3-triazole-4-carbohydrazide] | 36.5 ± 2.7 | 71.5 ± 3.6 | 52.2 ± 3.1 | 48.2 ± 3 | 
6 | Cc1c(C(=O)N/N=C/c2ccccc2)nnn1Cc1nc2ccccc2[nH]1 [Compound 6b, (E)-1-[(1H-Benzo[d]imidazol-2-yl)methyl]-N′-benzylidene-5-methyl-1H-1,2,3-triazole-4-carbohydrazide] | 75.1 ± 3.8 | 84.5 ± 4.1 | 61.2 ± 3.4 | 57.6 ± 3.3 | 
7 | 2-phenylthiomethylbenzimidazole [VI] |  |  |  |  | IC50 (Topo II [3]): 17 µM
8 | Cc1c(C(=O)NNC(=O)Nc2cccc3ccccc23)nnn1Cc1nc2ccccc2[nH]1 [Compound 5c, 2-{1-[(1h-Benzo[d]imidazol-2-yl)methyl]-5-methyl-1H-1,2,3-triazole-4-carbonyl}-N-(naphthalen-1-yl)hydrazinecarboxamide] | 59.2 ± 3.3 | 67.4 ± 3.5 | 27.6 ± 2 | 45.4 ± 2.9 | Cytotoxic activity category, all four tested cancer cell lines [2]: weak to moderate
9 | Cc1c(C(=O)NNC(=S)Nc2ccccc2)nnn1Cc1nc2ccccc2[nH]1 [Compound 5d, 2-{1-[(1h-Benzo[d]imidazol-2-yl)methyl]-5-methyl-1H-1,2,3-triazole-4-carbonyl}-N-phenylhydrazinecarbothioamide] | 41.4 ± 2.8 | 57.2 ± 3.2 | 12.4 ± 0.9 | 30.8 ± 2.3 | IC50 (HCT-116 cells; [15]): 21 to 50 µM; IC50 (HepG-2 cells [1]; [16]): 51 to 100 µM; IC50 (HeLa cells; [17]): 11 to 20 µM; IC50 (MCF-7 cells; [18]): 21 to 50 µM
10 | COc1cc(/C=N/NC(=O)c2nnn(Cc3nc4ccccc4[nH]3)c2C)ccc1O [Compound 6g, (E)-1-[(1H-Benzo[d]imidazol-2-yl)methyl]-N′-(4-hydroxy-3-methoxybenzylidene)-5-methyl-1H-1,2,3-triazole-4-carbohydrazide] | 3.34 ± 0.4 | 10.9 ± 0.8 | 9.84 ± 0.7 | 7.11 ± 0.5 | Cell cycle distribution G0-G1 (HepG-2 cells [4]): 38.91%; Cell cycle distribution G2/M (HepG-2 cells [4]): 33.81%; Cell cycle distribution Pre-G1 (HepG-2 cells [4]): 36.28%; Cell cycle distribution S (HepG-2 cells [4]): 27.28%; IC50 (WI-38 cell line): 43.3 ± 2.6 µM; IC50 [2, 13]: 1 to 10 µM; IC50 [2, 14]: 3.34 to 10.9 µM; Activity relative to Sorafenib against VEGFR-2 (VEGFR-2): 21%; Activity relative to Gefitinib against EGFR (EGFR): ~40%; IC50 (EGFR): 0.131 ± 0.005 µM; IC50 (Topo II [5]): 8.37 ± 0.49 µM; Apoptosis Early (Q4) (HepG-2 cells [6]): 11.02%; Apoptosis Late (Q2) (HepG-2 cells [6]): 19.85%; Apoptosis Total (HepG-2 cells [6]): 30.87%; Necrosis (Q1) (HepG-2 cells [6]): 5.41%; IC50 [7]: 0.131 to 8.37 µM
11 | COc1cccc2c1C(=O)c1c(O)c3c(c(O)c1C2=O)C[C@@](O)(C(=O)CO)C[C@@H]3O[C@H]1C[C@H](N)[C@H](O)[C@H](C)O1 [Dox, Doxorubicin, reference compound] |  | 4.5 ± 0.2 |  |  | IC50 (Topo IIB): 0.83 µM; IC50 [2, 14]: 4.17 to 5.57 µM
12 | COc1ccc(/C=N/NC(=O)c2nnn(Cc3nc4ccccc4[nH]3)c2C)cc1OC [Compound 6e, (E)-1-[(1H-Benzo[d]imidazol-2-yl)methyl]-N′-(3,4-dimethoxybenzylidene)-5-methyl-1H-1,2,3-triazole-4-carbohydrazide] | 19.7 ± 1.7 | 33.6 ± 2.3 | 29.1 ± 2.3 | 23.7 ± 1.9 | IC50 (HCT-116 cells; [15]): 11 to 20 µM; IC50 (HepG-2 cells [1]; [16]): 21 to 50 µM; IC50 (HeLa cells; [17]): 21 to 50 µM; IC50 (MCF-7 cells; [18]): 21 to 50 µM
13 | Cc1c(C(=O)NNC(=O)Nc2ccccc2)nnn1Cc1nc2ccccc2[nH]1 [Compound 5h, 2-{1-[(1h-Benzo[d]imidazol-2-yl)methyl]-5-methyl-1H-1,2,3-triazole-4-carbonyl}-N-phenylhydrazinecarboxamide] | 54.8 ± 3 | 42.1 ± 2.7 | 31.6 ± 2.3 | 38 ± 2.6 | Cytotoxic activity category, all four tested cancer cell lines [2]: weak to moderate
14 | Cc1c(C(=O)N/N=C/c2cccc(Br)c2)nnn1Cc1nc2ccccc2[nH]1 [Compound 6c, (E)-1-[(1H-Benzo[d]imidazol-2-yl)methyl]-N′-(3-bromobenzylidene)-5-methyl-1H-1,2,3-triazole-4-carbohydrazide] | 63.6 ± 3.3 | 56.3 ± 3.2 | 48.8 ± 2.8 | 44.8 ± 2.9 | 
16 | CN1CCN(c2ccc3nc(-c4c(N)c5c(F)cccc5[nH]c4=O)[nH]c3c2)CC1 [Dovitinib] |  |  |  |  | IC50 [8]: 13 µM
